Experimental findings from US7026349B2, “Sulfonamides” (SmithKline Beecham Corporation, priority 2001, dated 2006) are described below.

This test addresses T1, human and rat GPR-14 (UniProt Q9UKP6).
T1 sequence (Q9UKP6 1-389): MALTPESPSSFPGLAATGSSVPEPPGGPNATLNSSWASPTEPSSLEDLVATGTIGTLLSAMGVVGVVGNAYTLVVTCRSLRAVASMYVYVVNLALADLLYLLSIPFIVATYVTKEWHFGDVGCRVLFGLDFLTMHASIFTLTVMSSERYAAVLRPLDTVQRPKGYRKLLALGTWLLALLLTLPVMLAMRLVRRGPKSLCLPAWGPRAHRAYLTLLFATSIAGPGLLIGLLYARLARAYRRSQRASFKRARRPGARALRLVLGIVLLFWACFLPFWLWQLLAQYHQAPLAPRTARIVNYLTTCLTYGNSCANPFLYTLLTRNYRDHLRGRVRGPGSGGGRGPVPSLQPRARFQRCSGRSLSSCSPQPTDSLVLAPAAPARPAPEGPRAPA
Kind of test: Radioligand binding ([125I] h-U-II) to HEK-293 cell membranes containing cloned GPR-14. The following applies: stable cloned GPR-14, 200 pM [125I] h-U-II, species of receptor not given.

pKi: −log10 of the molar value.

As for `COc1cc(Br)c(S(=O)(=O)Nc2ccc(Cl)c(O[C@H]3CCN(C)C3)c2)cc1OC` [Example 10, 2-Bromo-N-[4-chloro-3-((S)-1-methyl-pyrrolidin-3-yloxy)-phenyl]-4,5-dimethoxy-benzenesulfonamide], the pKi is 6.57.

By pKi is commonly meant the negative decadic logarithm of the Ki, by convention in mol/L.
